# Laboratory results reported in patent US20060134719A1, “Novel serine protease” (priority 2002, published 2006).
# *: point of attachment. AMC = Cc1cc(=O)oc2cc(N*)ccc12; Boc = CC(C)(C)OC(=O)*; OBn = c1ccc(CO*)cc1
# Target: T1, purified protein solution (signal-FLAG-ARS-extracellular protein) (Homo sapiens, UniProt Q7Z410, INS90FVSSFQKTELEASCVGCSVLNYRDGNSSVLVHFQ)
# T1 construct: made in house; host or cells: HEK293-EBNA
# T1 sequence (Q7Z410 with tags, fused parts or gaps INS90FVSSFQKTELEASCVGCSVLNYRDGNSSVLVHFQ): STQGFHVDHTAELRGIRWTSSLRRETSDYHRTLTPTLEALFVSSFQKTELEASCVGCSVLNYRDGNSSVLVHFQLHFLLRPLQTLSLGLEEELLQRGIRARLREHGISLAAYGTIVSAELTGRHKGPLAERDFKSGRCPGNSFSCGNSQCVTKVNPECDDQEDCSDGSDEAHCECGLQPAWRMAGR
# T1 sequence (Q7Z410 with tags, fused parts or gaps): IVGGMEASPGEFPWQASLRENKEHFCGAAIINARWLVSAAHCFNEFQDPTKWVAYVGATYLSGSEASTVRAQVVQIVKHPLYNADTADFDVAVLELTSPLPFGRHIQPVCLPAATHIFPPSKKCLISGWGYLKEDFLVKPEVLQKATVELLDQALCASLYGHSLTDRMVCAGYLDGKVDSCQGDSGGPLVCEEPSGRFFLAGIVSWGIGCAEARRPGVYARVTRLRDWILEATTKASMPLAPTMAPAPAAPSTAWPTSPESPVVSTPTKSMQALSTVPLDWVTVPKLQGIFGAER
# Assay: Enzyme activity of purified recombinant protein using synthetic peptides
# Type: biochemical
# Conditions: substrate 200 μM or 400 μM, ammonium hydrogen carbonate buffer, 37° C. for one hour; versus buffer control
# Procedure: Using a cell expressing the signal-FLAG-ARS-extracellular protein, a recombinant protein secreted into the liquid culture of the cell was extracted and purified. Specifically, the transfected HEK293EBNA cells were incubated by the same method as in Example 7 to about 80% confluence, from which the culture medium was then removed. Instead, a culture medium containing 4% serum was added, for further incubation under conditions of 37° C. and a carbon dioxide concentration of 5% for another 4 days. The culture supernatant was recovered 4 days later; filtered through a 0.22-μm filter (Zartor); and adsorbed on an ANTI-FLAG M2-AGAROSE AFFINITY GEL (Sigma) column equilibrated with TBS buffer by a routine method. Subsequently, about 50 ml of the TBS buffer was used for washing the column. Then, 6 ml of […] glycine hydrochloride solution of pH 2.2 was passed through the column to obtain each 1 ml fraction. To the separated fractions, 100 μl of 1 M Tris-HCl of pH 8 was immediately added to adjust the pH. The individual fractions thus obtained were confirmed by Western blotting using an antibody against the FLAG tag added to the N terminus (mouse anti-FLAG monoclonal antibody M2; Sigma). Specifically, the eluted fractions were electrophoresed on SDS/4% to 20% acrylamide gel (Daiichi Pure Chemicals Co., Ltd.) (under reducing conditions) and then transferred on PVDF membrane (Millipore) using a blotting apparatus. After adding Block Ace (DAINIPPON PHARMACEUTICAL CO., LTD.) for blocking to the transferred PVDF membrane, a biotinylated mouse anti-FLAG monoclonal antibody (M2; Sigma) and horseradish peroxidase-labeled streptoavidin (Amersham Pharmacia) were sequentially reacted. After reaction, it was confirmed that which eluted fractions contained the protein, using ECL Western blotting detection system (Amersham Pharmacia).
# Using a synthetic peptides which have the C terminus labeled wit MCA (4-methyl-coumaryl-7-amide) by the same method as in Example 8, the cleavage activity of the enzyme purified in Example 10 was detected. Unless otherwise described, the method described in a paper (Yasuoka, S. et al., Am. J. Respir. Cell Mol Biol., Vol. 16, 300-308, 1997) was used. Specifically, using a synthetic peptides (Peptide Institute, Inc.) which have the C terminus labeled with MCA as substrates, the substrates were diluted with ammonium hydrogen carbonate buffer to become a final concentration of 200 μM or 400 μM in a 96-well plate. After the purified protein solution obtained in Example 10 or the ammonium hydrogen carbonate buffer as a control was added to the substrate solutions, the resulting mixtures were incubated at 37° C. for one hour. Subsequently, the fluorescence of AMC (7-amino-4-methyl-coumarin) released from the synthetic peptide by enzymatic cleavage was measured at a wavelength of 460 nm for measurement, using an excitation wavelength of 390 nm with a fluorescent plate reader (SAFIRE manufactured by TECAN). In FIG. 1, the open bar expresses buffer control, while the solid bar expresses the case of using purified protein solution. The first bar represents the case of using Boc-Glu(OBzl)-Ala-Arg-MCA as a substrate; the second bar represents the case of using Boc-Phe-Ser-Arg-MCA as a substrate; the third bar represents the case of using Boc-Leu-Ser-Thr-Arg-MCA as a substrate; the fourth bar represents the case of using Boc-Gln-Arg-Arg-MCA as a substrate; the fifth bar represents the case of using Suc-Ala-Ala-Pro-Phe-MCA as a substrate; the sixth bar represents the case of using Suc-Ala-Pro-Ala-MCA as a substrate; the seventh bar represents the case of using Boc-Glu-Lys-Lys-MCA as a substrate; the eighth bar represents the case of using Boc-Leu-Lys-Arg-MCA as a substrate; the ninth bar represents the case of using Boc-Leu-Gly-Arg-MCA as a substrate; and the tenth bar represents the case of using Boc-Asp(OBzl)-Pro-Arg-MCA as a substrate.
row,cleavage of synthetic peptide by purified protein solution (fluorescence of released AMC),Substance
1,showed the cleavage activities,Boc-Glu(OBn)-Ala-Arg-{AMC}
2,showed the cleavage activities,Boc-Phe-Ser-Arg-{AMC}
3,showed the cleavage activities,Boc-Gln-Arg-Arg-{AMC}
